Experimental data published in patent US7214495B2, “Screening method” (Takeda Pharmaceutical Company Limited, priority 2002, dated 2007).

Each molecule was assayed on mouse insulinoma MIN6 cells (assay: Insulin secretion from MIN6 cells with free fatty acid-BSA mixture (RIA)). Settings: 300 μM to 1000 μM; fatty acid-BSA 4:1; 11 mM glucose; 90 (or 60) minutes.
Format: cell-based
Procedure: The MIN6 cells were cultured in DMEM (high glucose, Invitrogen) containing 15% FCS (Trace Scientific Ltd.), 55 μM 2-mercaptoethanol, 100 U/ml penicillin and 100 μg/ml streptomycin, unless otherwise indicated. MIN6 cells were plated in a 96-well plate in 10^5 cells/well, followed by incubation at 37° C. for 3 days in a CO2 incubator adjusted to a concentration of 5% CO2. The medium was replaced by RPMI1640 (glucose free, Invitrogen) containing 10% FCS (Trace Scientific Ltd.), 5.5 mM glucose, 100 U/ml penicillin and 100 μg/ml streptomycin, followed by incubation for further 24 hours. After the medium was removed by suction, a solution mixture of free fatty acid-bovine serum albumin (BSA) (in a molar ratio of 4:1) diluted with RPMI1640 (glucose free, Invitrogen) containing 10% FCS (Trace Scientific Ltd.), 11 mM glucose, 100 U/ml penicillin and 100 μg/ml streptomycin was added to the cells, followed by reacting in a CO2 incubator adjusted to a 5% CO2 concentration at 37° C. for 90 minutes (or 60 minutes). After the reaction, the 96-well plate was centrifuged at 1500 rpm for 5 minutes and the culture supernatant was then recovered. The amount of insulin secreted into the culture supernatant was determined by radioimmunoassay (RIA) using the rat insulin RIA system (Amersham Pharmacia).

Row | SMILES | insulin secretion by MIN6 cells
1 | CCCCCCCC/C=C\CCCCCCCC(=O)O [Oleic acid (C18:1), Oleic acid] | promoted
2 | CCCCC/C=C\C/C=C\C/C=C\CCCCC(=O)O [γ-Linolenic acid (C18:3), γ-Linolenic acid] | promoted

These molecules were tested against T1, human-derived GPR40 (Homo sapiens, UniProt O14842) (assay: Intracellular calcium change (FLIPR) in CHO-K1 cells transiently expressing GPR40). Settings: added in 10^−5 M to 10^−6 M; no response in vector-only control cells.
T1 construct: The DNA fragment encoding human GPR40 was acquired by the following PCR procedures; expressed in transfected cells; host or cells: CHO-K1 (transient, Lipofectamine)
T1 sequence (O14842 whole entry, the tested form may be a part): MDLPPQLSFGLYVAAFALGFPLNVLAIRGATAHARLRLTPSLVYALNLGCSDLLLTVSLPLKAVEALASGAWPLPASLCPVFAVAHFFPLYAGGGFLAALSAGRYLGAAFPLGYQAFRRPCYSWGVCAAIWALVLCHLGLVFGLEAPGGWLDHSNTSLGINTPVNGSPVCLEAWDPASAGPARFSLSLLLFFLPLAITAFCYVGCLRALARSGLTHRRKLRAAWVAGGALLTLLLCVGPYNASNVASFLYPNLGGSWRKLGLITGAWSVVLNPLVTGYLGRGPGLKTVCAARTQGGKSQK
Format: cell-based
Procedure: The CHO-K1 cell line was cultured in HAM F-12 medium (Invitrogen) containing 10% fetal calf serum (Invitrogen), unless otherwise indicated. One day before transfection, 4.5×10^5 cells per 10 cm^2 were plated, followed by incubation in a CO2 incubator adjusted to a concentration of 5% CO2 at 37° C. for at least 15 hours. Using Lipofectamine reagent (Invitrogen), transfection procedures were carried out by modifications of the method attached to the reagent. When a 6-well plate was used for the incubator, the following procedures were performed. First, 2 tubes each having a 1.5 ml volume were prepared and 100 μl each of Opti-MEM-I medium (Invitrogen) was dispensed in each tube. Next, 1 μg of the expression vector was charged in one tube and in another tube, 6 μl of Lipofectamine reagent was charged, which were mixed together. The mixture was settled for 20 minutes at room temperature. To the solution, 800 μl of Opti-MEM-I medium was added and the resulting solution mixture for transfection was added to CHO-K1 cells, which had been previously washed with Opti-MEM-I medium. Then, the cells were incubated in a CO2 incubator for 6 hours. After the incubation, the cells were rinsed with PBS (Invitrogen), then scraped using 0.05% trypsin-EDTA solution (Invitrogen) and recovered by centrifugal operation. The cells obtained were counted and diluted to 5×10^4 cells per 200 μl of the medium. The dilution was dispensed onto a Black walled 96-well plate (Costar) in 200 μl each per well, followed by incubation overnight in a CO2 incubator. Various test samples were added to the CHO-K1 cells in which the receptor was transiently expressed by the transfection operation described above, whereby changes in the intracellular calcium ion level were determined using FLIPR (Molecular Device). In order to determine the changes in the intracellular calcium ion level on FLIPR, the cells were pre-treated by the following procedures. First, for the purpose of adding a fluorescent dye Fluo-3 AM (DOJIN) to the cells or washing the cells immediately before the FLIPR assay, an assay buffer was prepared. A solution obtained by adding 20 ml of 1M HEPES (pH 7.4) (DOJIN) to 1000 ml of HBSS (Invitrogen) was prepared (hereinafter HBSS/HEPES solution), to which 10 ml of a solution mixture obtained by dissolving 710 mg of Probenecid (Sigma) in 5 ml of 1N NaOH and further adding 5 ml of HBSS/HEPES solution was added. The resulting solution was used as the assay buffer. Next, 50 μg of Fluo-3AM was dissolved in 21 μl of DMSO (DOJIN) and an equal volume of 20% Pulronic acid (Molecular Probes) was added to and mixed with the solution. The mixture was then added to 10.6 ml of the assay buffer supplemented with 105 μl of fetal calf serum to prepare a fluorescent dye solution. The medium for the transfection-treated CHO-K1 cells was removed. Immediately thereafter, the fluorescent dye solution was dispensed in 100 μl each/well and the cells were incubated in a CO2 incubator for an hour so that the fluorescent dye was taken up into the cells. The cells after the incubation was washed with the assay buffer described above and set on FLIPR. A test sample added to the receptor-expressed CHO-K1 cells was prepared using the assay buffer and set on FLIPR at the same time. After various test samples were added thereto.
Following the pre-treatment above, changes in intracellular calcium level after addition of various test samples were measured on FLIPR.

Row | SMILES | response (increase in intracellular calcium level) of GPR40-expressing CHO-K1 cells
3 | CCCCC/C=C\C/C=C\C/C=C\C/C=C\CCCC(=O)O [Arachidonic acid (C20:4), Arachidonic acid] | specifically responsive
4 | CC/C=C\C/C=C\C/C=C\C/C=C\C/C=C\C/C=C\CCC(=O)O [Docosahexaenoic acid (C22:6), 4Z,7Z,10Z,13Z,16Z,19Z-docosahexaenoic acid] | specifically responsive
5 | CCCCC/C=C\C/C=C\CCCCCCCC(=O)O [Linoleic acid (C18:2), Linoleic acid] | specifically responsive
6 | CCCCCCCC/C=C\CCCCCCCC(=O)O [Oleic acid (C18:1), Oleic acid] | specifically responsive
